# Assay results published in US10787436B2, “Inhibitors of cyclin-dependent kinase 7 (CDK7)” (Dana-Farber Cancer Institute, Inc., priority 2012, dated 2020).
# Legend:
# MLK3 = MLK3 (Homo sapiens (Human), UniProt Q16584); experiment: Life Technologies LanthaScreen Eu kinase assay, MLK3; format: binding; settings: read-out: Calculated IC50, MLK3
# CDK5/p25 = CDK5/p25 (Homo sapiens (Human), UniProt Q00535); experiment: Life Technologies Z'-Lyte kinase assay, CDK5/p25; format: biochemical; settings: read-out: Calculated IC50, CDK5/p25
# Chain of CDK5/p25 (Q00535 whole entry): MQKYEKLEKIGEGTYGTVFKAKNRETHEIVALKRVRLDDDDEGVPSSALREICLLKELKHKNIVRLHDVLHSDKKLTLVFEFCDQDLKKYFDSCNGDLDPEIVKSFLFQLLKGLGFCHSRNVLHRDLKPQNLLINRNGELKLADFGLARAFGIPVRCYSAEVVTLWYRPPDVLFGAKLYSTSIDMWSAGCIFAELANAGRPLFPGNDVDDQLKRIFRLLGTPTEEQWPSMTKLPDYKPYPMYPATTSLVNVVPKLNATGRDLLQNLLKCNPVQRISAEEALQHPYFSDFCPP
# Chain of CDK5/p25 (Q15078 99-307 partner): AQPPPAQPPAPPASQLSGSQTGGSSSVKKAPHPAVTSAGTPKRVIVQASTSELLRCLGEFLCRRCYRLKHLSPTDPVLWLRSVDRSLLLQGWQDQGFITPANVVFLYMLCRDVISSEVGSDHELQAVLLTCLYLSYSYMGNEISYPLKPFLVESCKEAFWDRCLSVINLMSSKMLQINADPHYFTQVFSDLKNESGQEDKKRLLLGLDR
# Jurkat = Jurkat (proliferation, CellTiter-Glo); format: cell-based; settings: Homo sapiens, Jurkat; read-out: Calculated IC50, Jurkat
# MNNG-HOS Cl#5 = experiment: Proliferation assay, CellTiter-Glo, 72 hour; format: cell-based; settings: osteosarcoma cell line, read-out: Inhibition of proliferation, MNNG-HOS Cl#5
# MV4-11 = experiment: Proliferation assay, CellTiter-Glo, 72 hour; format: cell-based; settings: Homo sapiens, MV4-11, blood cancer cell line, read-out: Inhibition of proliferation, MV4-11
# MCF7 = experiment: Proliferation assay, CellTiter-Glo, 72 hour; format: cell-based; settings: Homo sapiens, MCF7, breast cancer cell line, read-out: Inhibition of proliferation, MCF7
# RNAP II occupancy = experiment: RNAP II ChIP-seq in Jurkat cells; format: cell-based, human; settings: 250 nM for 6 hours
# Protocol: After the indicated treatment time, cells were crosslinked for 10 minutes at room temperature by the addition of one-tenth of the volume of 11% formaldehyde solution (11% formaldehyde, 50 mM Hepes (pH 7.3), 100 mM NaCl, 1 mM EDTA (pH 8.0), 0.5 mM EGTA (pH 8.0)) to the growth media followed by two washes with PBS. Following the final PBS wash, supernatant was aspirated, and the cell pellet was flash frozen in liquid nitrogen. Frozen crosslinked cells were stored at −80° C.
# 50 μl of Dynal magnetic beads (Sigma) were blocked with 0.5% BSA (w/v) in PBS. Magnetic beads were bound with 5 μg of the indicated antibody. Antibodies used are as follows: Total RNAP II (Rpb1 N-terminus): Santa Cruz sc-899; CDK7: Bethyl A300-405A. Crosslinked cells were lysed with lysis buffer 1 (50 mM Hepes (pH 7.3), 140 mM NaCl, 1 mM EDTA, 10% glycerol, 0.5% NP-40, and 0.25% Triton X-100) and washed with lysis buffer 2 (10 mM Tris-HCl (pH 8.0), 200 mM NaCl, 1 mM EDTA (pH 8.0) and 0.5 mM EGTA (pH 8.0)). […]
# Illumina sequencing libraries were generated, and data were processed according to Lin et al., Cell (2012) 151:56-67. […] These criteria preserved only reads that mapped uniquely to the genome with 1 or fewer mismatches. […]
# SKBR3 = experiment: Proliferation assay, CellTiter-Glo, 72 hour; format: cell-based; settings: Homo sapiens, SK-BR-3, breast cancer cell line, read-out: Inhibition of proliferation, SKBR3
# RS4-11 = experiment: Proliferation assay, CellTiter-Glo, 72 hour; format: cell-based; settings: Homo sapiens, RS4-11, blood cancer cell line, read-out: Inhibition of proliferation, RS4-11
# [1] = tested on: patient-derived chronic lymphocytic leukemia (CLL) isolates; experiment: Cell death of patient-derived CLL isolates, Annexin V staining, 24 hour; format: cell-based, human; settings: Homo sapiens, read-out: Pro-death signaling, average EC50 values
# Protocol: Clinical isolates of CLL were cultured with compounds of Formula (I) or flavopiridol and assessed for cell death after a 24 hour time course by Annexin V staining. […] Anti-proliferative effect was measured using cell titer glo analysis.
# PBMCs freshly isolated from peripheral blood are seeded in 24 well plates at a volume of 0.5 ml and a concentration of 2×10^6 cells/ml. Compounds and controls are added to respective wells in a total volume of 2.5 μl. Plates are mixed gently and incubated approximately 24 hours at 37° C., 5% CO2. Apoptosis was measured in all cells from each well using the Annexin V: FITC Apoptosis Detection Kit I (BD Biosciences). Normalized % death was calculated as follows: [(% Dead Drug−% Dead DMSO)/(100%−% Dead DMSO)]×100
# 143B = experiment: Proliferation assay, CellTiter-Glo, 72 hour; format: cell-based; settings: Homo sapiens, 143B, osteosarcoma cell line, read-out: Inhibition of proliferation, 143B
# THP-1 = experiment: Proliferation assay, CellTiter-Glo, 72 hour; format: cell-based; settings: Homo sapiens, THP-1, blood cancer cell line, read-out: Inhibition of proliferation, THP-1
# Hs822T = experiment: Proliferation assay, CellTiter-Glo, 72 hour; format: cell-based; settings: Ewing's sarcoma cell line, read-out: Inhibition of proliferation, Hs822T
# A673 = experiment: Proliferation assay, CellTiter-Glo, 72 hour; format: cell-based; settings: Homo sapiens, A673, Ewing's sarcoma cell line, read-out: Inhibition of proliferation, A673
# SAOS = experiment: Proliferation assay, CellTiter-Glo, 72 hour; format: cell-based; settings: osteosarcoma cell line, read-out: Inhibition of proliferation, SAOS
# T47D = experiment: Proliferation assay, CellTiter-Glo, 72 hour; format: cell-based; settings: Homo sapiens, T47D, breast cancer cell line, read-out: Inhibition of proliferation, T47D
# Hs863T = experiment: Proliferation assay, CellTiter-Glo, 72 hour; format: cell-based; settings: Ewing's sarcoma cell line, read-out: Inhibition of proliferation, Hs863T
# RD-ES = experiment: Proliferation assay, CellTiter-Glo, 72 hour; format: cell-based; settings: RD-ES, Ewing's sarcoma cell line, read-out: Inhibition of proliferation, RD-ES
# SK-ES = experiment: Proliferation assay, CellTiter-Glo, 72 hour; format: cell-based; settings: Ewing's sarcoma cell line, read-out: Inhibition of proliferation, SK-ES
# HL60 = experiment: Proliferation assay, CellTiter-Glo, 72 hour; format: cell-based; settings: Homo sapiens, HL-60, blood cancer cell line, read-out: Inhibition of proliferation, HL60
# MDA-MB231 = experiment: Proliferation assay, CellTiter-Glo, 72 hour; format: cell-based; settings: Homo sapiens, MDA-MB-231, breast cancer cell line, read-out: Inhibition of proliferation, MDA-MB231
# hTERT-HME1 = experiment: Proliferation assay, CellTiter-Glo, 72 hour; format: cell-based; settings: hTERT-HME1, immortalized normal mammary epithelial cell line, read-out: Inhibition of proliferation, hTERT-HME1
# MCF10A = experiment: Proliferation assay, CellTiter-Glo, 72 hour; format: cell-based; settings: Homo sapiens, MCF-10A, non-tumorigenic breast epithelial cell line, read-out: Inhibition of proliferation, MCF10A
# CDK7 = CDK7 (Homo sapiens (Human), UniProt P50613); experiment: Compound I-49 pull down from Loucy cellular lysates; format: binding; settings: 1 μM, 4° C., 12 hours
# Chain of CDK7 (P50613 whole entry): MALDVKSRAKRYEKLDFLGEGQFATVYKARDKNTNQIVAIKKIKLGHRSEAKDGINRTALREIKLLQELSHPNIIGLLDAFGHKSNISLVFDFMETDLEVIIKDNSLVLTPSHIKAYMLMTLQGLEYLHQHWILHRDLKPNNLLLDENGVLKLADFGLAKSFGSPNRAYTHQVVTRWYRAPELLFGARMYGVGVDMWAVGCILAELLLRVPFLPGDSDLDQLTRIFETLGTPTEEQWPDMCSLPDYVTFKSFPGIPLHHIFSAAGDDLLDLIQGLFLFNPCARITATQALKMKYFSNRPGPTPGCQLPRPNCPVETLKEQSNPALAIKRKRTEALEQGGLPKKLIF
# Protocol: Precipitated proteins were washed and probed for CDK7.
# (§1) Following the treatment, the cells were washed 2-fold with cold PBS and then lysed in the following lysis buffer: 50 mM TrisHCl pH 8.0, 150 mM NaCl, 1% NP-40, 5 mM EDTA, 1 mM DTT, and protease/phosphatase cocktails. Following clearance, the lysates were treated with compound I-49 for pulldown (or CDK7 antibody for IP) overnight at 4° C. The lysates were then incubated with streptavidin agarose for pulldown (or Protein G Agarose for IP) for an additional 2-3 hours at 4° C. Agarose beads were washed 5 times with a lysis buffer and then boiled in 2X SDS for 10 minutes at 95° C.
# cyclin K = experiment: as above; format: binding
# Protocol: (§2) However, cyclin K, which is known to bind to CDK12/13, did interact with I-49. […] Lysates were then probed with I-49. Precipitated proteins were washed and probed with antibodies as shown.
# as §1
# [2] = tested on: CDK1, CDK2, CDK4, and CDK6; experiment: as above; format: binding
# Protocol: as §2, §1
# Chain of MLK3 (Q16584 whole entry): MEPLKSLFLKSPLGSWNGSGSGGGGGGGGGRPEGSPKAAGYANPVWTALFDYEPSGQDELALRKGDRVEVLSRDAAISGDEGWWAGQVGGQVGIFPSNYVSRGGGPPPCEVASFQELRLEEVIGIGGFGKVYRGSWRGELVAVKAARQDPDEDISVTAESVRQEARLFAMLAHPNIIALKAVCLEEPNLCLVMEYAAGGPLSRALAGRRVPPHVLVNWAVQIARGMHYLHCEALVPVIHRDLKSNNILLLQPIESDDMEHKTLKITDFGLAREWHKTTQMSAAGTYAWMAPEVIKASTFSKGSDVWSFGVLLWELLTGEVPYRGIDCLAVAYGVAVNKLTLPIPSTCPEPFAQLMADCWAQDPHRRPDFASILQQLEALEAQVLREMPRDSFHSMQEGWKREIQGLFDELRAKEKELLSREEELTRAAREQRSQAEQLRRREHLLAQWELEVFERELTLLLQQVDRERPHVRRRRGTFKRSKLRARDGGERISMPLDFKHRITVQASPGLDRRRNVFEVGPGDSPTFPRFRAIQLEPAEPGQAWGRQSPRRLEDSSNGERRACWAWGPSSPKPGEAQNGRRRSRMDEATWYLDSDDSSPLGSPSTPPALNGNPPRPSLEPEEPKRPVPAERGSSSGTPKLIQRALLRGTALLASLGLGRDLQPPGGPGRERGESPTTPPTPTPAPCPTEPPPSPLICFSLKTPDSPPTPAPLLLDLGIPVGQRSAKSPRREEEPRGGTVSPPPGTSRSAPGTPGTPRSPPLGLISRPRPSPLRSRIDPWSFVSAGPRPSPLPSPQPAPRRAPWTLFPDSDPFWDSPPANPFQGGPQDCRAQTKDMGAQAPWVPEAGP
compound,measurement,setting,value
"CN(C)C/C=C/C(=O)Nc1ccc(C(=O)Nc2cccc(Nc3ncc(C#N)c(-c4c[nH]c5ccccc45)n3)c2)cc1 [Formula I-53, (E)-N-(3-(5-cyano-4-(1H-indol-3-yl)pyrimidin-2-ylamino)phenyl)-4-(4-(dimethylamino)but-2-enamido)benzamide]",IC50,MLK3,< 100 nM
same,IC50,CDK5/p25,100 to 1000 nM
same,IC50,Jurkat,< 100 nM
"CN1CC[C@H](c2c(O)cc(O)c3c(=O)cc(-c4ccccc4Cl)oc23)[C@H](O)C1 [Flavopiridol, flavopiridol, reference compound]",IC50,MNNG-HOS Cl#5,500 to 5000 nM
same,IC50,MV4-11,< 500 nM
same,IC50,MCF7,500 to 5000 nM
same,RNAP II occupancy at the promoter proximal pause site,RNAP II occupancy,unaffected
same,IC50,SKBR3,< 500 nM
same,IC50,RS4-11,< 500 nM
same,EC50,[1],< 200 nM
same,IC50,143B,500 to 5000 nM
same,IC50,THP-1,< 500 nM
same,IC50,Hs822T,> 5000 nM
same,IC50,A673,< 500 nM
same,IC50,SAOS,< 500 nM
same,IC50,T47D,> 5000 nM
same,IC50,Hs863T,> 5000 nM
same,IC50,RD-ES,< 500 nM
same,IC50,SK-ES,< 500 nM
same,IC50,HL60,< 500 nM
same,IC50,MDA-MB231,< 500 nM
same,IC50,hTERT-HME1,< 500 nM
same,IC50,MCF10A,< 500 nM
CN(C/C=C/C(=O)Nc1ccc(C(=O)Nc2cccc(Nc3ncc(Cl)c(-c4c[nH]c5ccccc45)n3)c2)cc1)CCCNC(=O)NCCOCCOCCOCCNC(=O)CCCCC1SCC2NC(=O)NC21 (centres unmarked) [Formula I-49],Pull down of CDK7 from cellular lysates,CDK7,pulls down CDK7
same,Interaction with cyclin K,cyclin K,did interact
same,"Interaction with CDK1, CDK2, CDK4, and CDK6",[2],do not interact
